Measurements from patent US20250101041A1, “POSITIVE ALLOSTERIC MODULATORS OF THE MUSCARINIC ACETYLCHOLINE RECEPTOR M4” (Vanderbilt University, priority 2022, published 2025).

Molecular target: T1, human mAChR M4 (Homo sapiens, UniProt P08173)
T1 construct: expressed in transfected cells; host or cells: CHO-K1 (American Type Culture Collection), stably expressing hM4 and Gqi5
T1 sequence (P08173 1-479): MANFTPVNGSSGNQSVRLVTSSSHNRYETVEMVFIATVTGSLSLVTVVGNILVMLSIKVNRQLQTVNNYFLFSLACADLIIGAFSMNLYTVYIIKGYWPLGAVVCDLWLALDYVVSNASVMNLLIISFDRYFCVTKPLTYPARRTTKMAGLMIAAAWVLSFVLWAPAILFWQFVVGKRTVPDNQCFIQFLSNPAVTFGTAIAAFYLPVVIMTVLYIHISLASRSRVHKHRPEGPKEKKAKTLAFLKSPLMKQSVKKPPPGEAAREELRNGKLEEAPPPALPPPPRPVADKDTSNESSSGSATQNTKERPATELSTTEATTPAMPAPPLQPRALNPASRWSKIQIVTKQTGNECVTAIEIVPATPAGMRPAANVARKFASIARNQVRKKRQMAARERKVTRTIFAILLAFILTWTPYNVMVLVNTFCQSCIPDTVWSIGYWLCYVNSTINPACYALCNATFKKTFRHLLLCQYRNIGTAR
Experiment: mAChR M4 cell-based functional assay: calcium mobilization (Fluo-4, FDSS), potentiation of EC20 acetylcholine response in hM4-Gqi5 CHO-K1 cells
Settings: human M4; for Emax at 30 µM: CHO-K1, % ACh maximum at 30 μM; for EC50: potentiation of EC20 acetylcholine response, calcium mobilization
Outline: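 CHO-K1 cells stably co-expressing human M4 and chimeric Gqi5, loaded with Fluo-4 AM (50 min, 37 °C). Compounds in 11-point 1:3 series added first; EC20 acetylcholine added at 144 s and again at 230 s. Calcium read on FDSS at 1 Hz; EC50 and Emax from four-parameter logistic fit of potentiated EC20 response.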

| SMILES | Emax at 30 µM [%] | EC50 [nM] |
| --- | --- | --- |
| Cc1cc2nccc(=O)n2nc1N1CCc2ncc(-c3ccc(C#N)nc3C)cc2C1 [Compound 1-421, 6-methyl-5-(6-(8-methyl-4-oxo-4H-pyrimido[1,2-b]pyridazin-7-yl)-5,6,7,8-tetrahydro-1,6-naphthyridin-3-yl)picolinonitrile] | 97 | 2420 |
| Cc1cc2nccc(=O)n2nc1N1CCc2ncc(-c3cccnc3C(C)C)cc2C1 [Compound 1-422, 7-(3-(2-isopropylpyridin-3-yl)-7,8-dihydro-1,6-naphthyridin-6(5H)-yl)-8-methyl-4H-pyrimido [1,2-b]pyridazin-4-one] | 64 | 1720 |
| Cc1cc2nccc(=O)n2nc1N1CCc2ncc(-c3cc(C#N)n(C)c3C)cc2C1 [Compound 1-423, 1,5-dimethyl-4-(6-(8-methyl-4-oxo-4H-pyrimido[1,2-b]pyridazin-7-yl)-5,6,7,8-tetrahydro-1,6-naphthyridin-3-yl)-1H-pyrrole-2-carbonitrile] | 79 | 1190 |
| Cc1cc2nccc(=O)n2nc1N1CCc2ncc(-c3c(C)nn(C)c3C)cc2C1 [Compound 1-424, 8-methyl-7-(3-(1,3,5-trimethyl-1H-pyrazol-4-yl)-7,8-dihydro-1,6-naphthyridin-6(5H)-yl)-4H-pyrimido[1,2-b] pyridazin-4-one] | 84 | 746 |
| Cc1cc2nccc(=O)n2nc1N1CCc2ncc(-c3cccnc3C(F)F)cc2C1 [Compound 1-425, 7-(3-(2-(difluoromethyl)pyridin-3-yl)-7,8-dihydro-1,6-naphthyridin-6(5H)-yl)-8-methyl-4H-pyrimido[1,2-b]pyridazin-4-one] | 79 | 836 |
| COc1nccc(-c2cnc3c(c2)CN(c2nn4c(=O)ccnc4cc2C)CC3)c1C [Compound 1-427, 7-(3-(2-methoxy-3-methylpyridin-4-yl)-7,8-dihydro-1,6-naphthyridin-6(5H)-yl)-8-methyl-4H-pyrimido[1,2-b]pyridazin-4-one] | 78 | 1520 |
| Cc1c(N2CCc3ncc(C4CCOCC4)cc3C2)nn2c(=O)ccnc2c1C [Compound 1-429, 8,9-Dimethyl-7-(3-(tetrahydro-2H-pyran-4-yl)-7,8-dihydro-1,6-naphthyridin-6(5H)-yl)-4H-pyrimido[1,2-b]pyridazin-4-one] | 91 | 901 |
| Cc1cc2nccc(=O)n2nc1N1CCc2ncc(-c3ccccc3C(C)(F)F)cc2C1 [Compound 1-433, 7-(3-(2-(1,1-difluoroethyl)phenyl)-7,8-dihydro-1,6-naphthyridin-6(5H)-yl)-8-methyl-4H-pyrimido[1,2-b]pyridazin-4-one] | 41 | 1250 |
| Cc1cc2nccc(=O)n2nc1N1CCc2ncc(-c3cccc4[nH]cc(C)c34)cc2C1 [Compound 1-435, 8-methyl-7-(3-(3-methyl-1H-indol-4-yl)-7,8-dihydro-1,6-naphthyridin-6(5H)-yl)-4H-pyrimido[1,2-b]pyridazin-4-one] | 51 | 1980 |
| Cc1cc2nccc(=O)n2nc1N1CCc2ncc(-c3cccc4c3CCC4)cc2C1 [Compound 1-436, 7-(3-(2,3-dihydro-1H-inden-4-yl)-7,8-dihydro-1,6-naphthyridin-6(5H)-yl)-8-methyl-4H-pyrimido[1,2-b]pyridazin-4-one] | 78 | 484 |
| Cc1cc2nccc(=O)n2nc1N1CCc2ncc(-c3cccc(C#N)c3C)cc2C1 [Compound 1-437, 2-methyl-3-(6-(8-methyl-4-oxo-4H-pyrimido[1,2-b]pyridazin-7-yl)-5,6,7,8-tetrahydro-1,6-naphthyridin-3-yl)benzonitrile] | 70 | 1010 |
| Cc1cc2nccc(=O)n2nc1N1CCc2ncc(-c3ccccc3C3(C#N)CC3)cc2C1 [Compound 1-438, 1-(2-(6-(8-methyl-4-oxo-4H-pyrimido[1,2-b]pyridazin-7-yl)-5,6,7,8-tetrahydro-1,6-naphthyridin-3-yl)phenyl)cyclopropane-1-carbonitrile] | 45 | 3900 |
| Cc1cc2nccc(=O)n2nc1N1CCc2ncc(-c3ccccc3C(C)C)cc2C1 [Compound 1-439, 7-(3-(2-isopropylphenyl)-7,8-dihydro-1,6-naphthyridin-6(5H)-yl)-8-methyl-4H-pyrimido [1,2-b]pyridazin-4-one] | 22 | 1230 |
| Cc1cc2nccc(=O)n2nc1N1CCc2ncc(-c3ccccc3C3CC3)cc2C1 [Compound 1-440, 7-(3-(2-cyclopropylphenyl)-7,8-dihydro-1,6-naphthyridin-6(5H)-yl)-8-methyl-4H-pyrimido [1,2-b]pyridazin-4-one] | 56 | 380 |
| Cc1cc2nccc(=O)n2nc1N1CCc2ncc(-c3cccc(Cl)c3C)cc2C1 [Compound 1-441, 7-(3-(3-chloro-2-methylphenyl)-7,8-dihydro-1,6-naphthyridin-6(5H)-yl)-8-methyl-4H-pyrimido[1,2-b]pyridazin-4-one] | 78 | 606 |
| Cc1cc2nccc(=O)n2nc1N1CCc2ncc(-c3cccc(C)c3C)cc2C1 [Compound 1-442, 7-(3-(2,3-dimethylphenyl)-7,8-dihydro-1,6-naphthyridin-6(5H)-yl)-8-methyl-4H-pyrimido [1,2-b]pyridazin-4-one] | 86 | 411 |
| Cc1cc(F)c(F)cc1-c1cnc2c(c1)CN(c1nn3c(=O)ccnc3c(C)c1C)CC2 [Compound 1-446, 7-(3-(4,5-difluoro-2-methylphenyl)-7,8-dihydro-1,6-naphthyridin-6(5H)-yl)-8,9-dimethyl-4H-pyrimido[1,2-b]pyridazin-4-one] | 85 | 574 |

Stronger by EC50, values ahead:

| Emax at 30 µM [%] | EC50 [nM] | SMILES |
| --- | --- | --- |
| 84 | 348 | COc1ccc(-c2cnc3c(c2)CN(c2nn4c(=O)ccnc4cc2C)CC3)c(C)n1 [Compound 1-426, 7-(3-(6-methoxy-2-methylpyridin-3-yl)-7,8-dihydro-1,6-naphthyridin-6(5H)-yl)-8-methyl-4H-pyrimido[1,2-b]pyridazin-4-one] |
| 80 | 351 | Cc1cc2nccc(=O)n2nc1N1CCc2ncc(-c3sc(C(=O)NC4CC4)cc3C)cc2C1 [Compound 1-428, N-cyclopropyl-4-methyl-5-(6-(8-methyl-4-oxo-4H-pyrimido[1,2-b]pyridazin-7-yl)-5,6,7,8-tetrahydro-1,6-naphthyridin-3-yl)thiophene-2-carboxamide] |
| 75 | 95 | Cc1c(N2CCc3ncc(C4CCCCC4)cc3C2)nn2c(=O)ccnc2c1C [Compound 1-430, 7-(3-cyclohexyl-7,8-dihydro-1,6-naphthyridin-6(5H)-yl)-8,9-dimethyl-4H-pyrimido[1,2-b] pyridazin-4-one] |
| 96 | 130 | Cc1ccccc1-c1cnc2c(c1)CN(c1nn3c(=O)ccnc3cc1C)CC2 [Compound 1-431, 8-methyl-7-(3-(o-tolyl)-7,8-dihydro-1,6-naphthyridin-6(5H)-yl)-4H-pyrimido[1,2-b] pyridazin-4-one] |
| 80 | 63 | Cc1ccc(F)cc1-c1cnc2c(c1)CN(c1nn3c(=O)ccnc3cc1C)CC2 [Compound 1-432, 7-(3-(5-fluoro-2-methylphenyl)-7,8-dihydro-1,6-naphthyridin-6(5H)-yl)-8-methyl-4H-pyrimido [1,2-b]pyridazin-4-one] |
| 90 | 238 | Cc1cc2nccc(=O)n2nc1N1CCc2ncc(-c3ccccc3C(F)F)cc2C1 [Compound 1-434, 7-(3-(2-(difluoromethyl)phenyl)-7,8-dihydro-1,6-naphthyridin-6(5H)-yl)-8-methyl-4H-pyrimido[1,2-b]pyridazin-4-one] |
| 99 | 210 | Cc1cc(F)ccc1-c1cnc2c(c1)CN(c1nn3c(=O)ccnc3cc1C)CC2 [Compound 1-443, 7-(3-(4-fluoro-2-methylphenyl)-7,8-dihydro-1,6-naphthyridin-6(5H)-yl)-8-methyl-4H-pyrimido [1,2-b]pyridazin-4-one] |
| 93 | 131 | COc1c(F)cc(-c2cnc3c(c2)CN(c2nn4c(=O)ccnc4cc2C)CC3)c(C)c1F [Compound 1-444, 7-(3-(3,5-difluoro-4-methoxy-2-methylphenyl)-7,8-dihydro-1,6-naphthyridin-6(5H)-yl)-8-methyl-4H-pyrimido [1,2-b]pyridazin-4-one] |
| 85 | 78 | Cc1cc(F)c(F)cc1-c1cnc2c(c1)CN(c1nn3c(=O)ccnc3cc1C)CC2 [Compound 1-445, 7-(3-(4,5-difluoro-2-methylphenyl)-7,8-dihydro-1,6-naphthyridin-6(5H)-yl)-8-methyl-4H-pyrimido[1,2-b]pyridazin-4-one] |
| 83 | 191 | Cc1cc2nccc(=O)n2nc1N1CCc2ncc(-c3cc(F)cc(F)c3C)cc2C1 [Compound 1-447, 7-(3-(3,5-difluoro-2-methylphenyl)-7,8-dihydro-1,6-naphthyridin-6(5H)-yl)-8-methyl-4H-pyrimido [1,2-b]pyridazin-4-one] |
